Data published in US10280156B2, “Heteroaromatic chalcone derivatives and their medical use” (Medizinische Universität Wien, priority 2014, dated 2019).

Experiments:
[1] = tested on: MEC1; assay: Viability test (CellTiter-Blue/EZ4U) on MEC1 cells, 48 h; type: cell-based, human; details: 48 h incubation, nd = no significant cytotoxic activity up to 100 μM
Protocol: (§1) JURKAT and CCRF-CEM (T-cell acute lymphoblastic leukemia), HL60 and K562 representing acute and chronic myeloid leukemia, respectively, the chronic lymphocytic leukemia cell line MEC-1, and the diffuse large B-cell lymphoma cell line U-2940 were cultured in Gibco RPMI 1640+GlutaMAX (Life Technologies, Carlsbad, Calif., USA) supplemented with 10% fetal bovine serum gold (FBS gold; PAA Laboratories, Pasching, Austria) and 1% PenStrep (100 U/ml penicillin and 100 μg/ml streptomycin; PAA Laboratories), and maintained at 37° C. in humidified atmosphere with 5% CO2. The diffuse large B-cell lymphoma cell line OCI-LY7 was cultured in Gibco IMDM+GlutaMAX and 25 mM HEPES (Life Technologies) containing 20% FBS gold and 1% PenStrep.
(§2) All experiments with hematological cell lines were done using phenol red-free RPMI 1640+L-glutamine (PAA Laboratories) supplemented with 1% PenStrep and 10% FBS gold, except experiments with OCI-Ly7 which were carried out in Gibco IMEM+GlutaMAX and 25 mM HEPES containing 20% FBS gold and 1% PenStrep. Cells were incubated in triplicates with increasing concentrations of the compounds for 48 h, changes in viability were determined using the cell proliferation and cytotoxicity assays EZ4U (Biomedica Group, Austria) and CellTiter-Blue Cell Viability Assay (Promega, Madison, Wis., USA) following instructions of the manufacturers. IC50 values were calculated from two independent experiments using GraphPad Prism 5 software.
(§3) Initially, compounds were biologically tested in six concentration steps (0.1 μM; 1 μM; 5 μM; 10 μM; 50 μM; and 100 μM) using the CellTiter-Blue Cell Viability Assay (Promega, Madison, Wis., USA) and an incubation time of 48 hours. […] IC50 values were calculated from at least two independent experiments with 3 replicates each. In order to evaluate the biologic activity of the new compounds, cytotoxicity was compared to that of fludarabine, an already approved drug for the treatment of various B-cell malignancies. […] Differences in IC50 values for the different cell types can be explained by the biological and genetic particularities of each subtype of B-cell Non-Hodgkin lymphoma (Stacchini A et al. Leukemia Res 1999, 23, 127-136; Sambade C et al. Int J Cancer 2006, 118, 555-563; Chang H et al. Leukemia lymphoma 1995, 19, 165-171; Tweeddale M E et al. Blood 1987, 69, 1307-1314; Tweeddale M et al. Blood 1989, 74, 572-578).

[2] = tested on: U-2940; assay: Viability test on U-2940 cells, 48 h; type: cell-based, human; details: 48 h incubation, nd = no significant cytotoxic activity up to 100 μM
Protocol: as §1, §2, §3

[3] = tested on: OCI-Ly7; assay: Viability test on OCI-Ly7 cells, 48 h; type: cell-based, human; details: 48 h incubation, nd = no significant cytotoxic activity up to 100 μM
Protocol: as §1, §2, §3

[4] = tested on: M2-10B4; assay: Viability test on mouse fibroblast cell line M2-10B4, 48 h; type: cell-based; details: for IC50: Mus musculus, M210B4, 48 h, 48 h incubation, mouse fibroblast cell line; for cytotoxic potential on M2-10B4 (in words): mouse fibroblasts
Protocol: as §2
Structurally seen, the small molecule compound 1 represents a typical chalcone scaffold. It is characterized by an ortho-ethoxy-substituted phenyl part as ring A and a 2-naphthyl moiety symbolizing ring B. The focus of the present study was to guide the systematic identification of a growth inhibitor with specificity to neoplastic cells, as cytotoxicity towards healthy cells is mostly associated with adverse effects, which can be related to morbidity and mortality of the patient (Milligan D W et al. Brit J Haematol 2006, 135, 450-474). To discriminate in vitro between structural elements necessary for potent cytotoxicity towards tumor cells which, at the same time, clearly show less activity on normal cells, the compounds were additionally tested on the murine bone marrow fibroblast cell line M2-10B4. This cell line is regularly used as feeder layer when cultured with patient cells providing additional support and survival signals in particular in drug screens (Kurtova A V et al. Blood 2009, 114, 4441-4450).
as §3

SMILES | IC50 ([1]; Homo sapiens, MEC1, 48 h) | IC50 ([2]; Homo sapiens, U-2940, 48 h) | IC50 ([3]; Homo sapiens, OCI-Ly7, 48 h) | IC50 [4] | cytotoxic potential on M2-10B4 (in words) [4] | IC50 [1] | IC50 [2] | IC50 [3] | melting point
COc1ccccc1C(=O)/C=C/c1ccc2ccccc2c1 [Compound 2, 1-(2-Methoxyphenyl)-3-(2-naphthyl)-2-propen-1-one] | 0.43 µM | 4.09 µM | 0.46 µM | 41.8 µM |  |  |  |  | 
CCCOc1ccccc1C(=O)/C=C/c1ccc2ccccc2c1 [Compound 3, 3-(2-Naphthyl)-1-(2-propoxyphenyl)-2-propen-1-one] | 0.13 µM | 5.31 µM | 0.1 µM | > 100 µM |  |  |  |  | 
CCCCOc1ccccc1C(=O)/C=C/c1ccc2ccccc2c1 [Compound 4, 1-(2-Butoxyphenyl)-3-(2-naphthyl)-2-propen-1-one] | 0.7 µM | 5.31 µM | 0.12 µM | > 100 µM |  |  |  |  | 
Cc1ccccc1C(=O)/C=C/c1ccc2ccccc2c1 [Compound 6, 1-(2-Methylphenyl)-3-(2-naphthyl)-2-propen-1-one] | 6.36 µM | 10.3 µM | 4.92 µM | 72 µM |  |  |  |  | 
CCOc1ccccc1C(=O)/C=C/c1ccc2cc(OC)ccc2c1 [Compound 7, 1-(2-Ethoxyphenyl)-3-(6-methoxy-2-naphthyl)-2-propen-1-one] | 7.16 µM | 24.7 µM | 1.01 µM | > 100 µM | no cytotoxic potential |  |  |  | 
C=Cc1cccc(/C=C/C(=O)c2ccccc2OCC)c1 [Compound 8, 3-(3-Ethenylphenyl)-1-(2-ethoxyphenyl)-2-propen-1-one] | 0.2 µM | 2.5 µM | 0.5 µM | > 100 µM | did not show any activity |  |  |  | 
CCOc1ccccc1C(=O)/C=C/c1c2ccccc2cc2ccccc12 [Compound 11, 3-(9-Anthranyl)-1-(2-ethoxyphenyl)-2-propen-1-one] | > 50 µM | > 50 µM | > 50 µM | > 50 µM |  | > 100 µM | > 100 µM | > 100 µM | 
CCOc1ccccc1C(=O)/C=C/c1cc2ccccc2c2ccccc12 [Compound 12, 1-(2-Ethoxyphenyl)-3-(9-phenanthrenyl)-2-propen-1-one] | 1.63 µM | 39.9 µM |  | > 100 µM |  |  |  |  | 117 to 120 °C
CCOc1ccccc1C(=O)/C=C/c1csc2ccccc12 [Compound 14, 3-(1-Benzothien-3-yl)-1-(2-ethoxyphenyl)-2-propen-1-one] | 0.17 µM | 0.86 µM | 0.1 µM | 8.2 µM |  |  |  |  | 
CCOc1cccc(C(=O)/C=C/c2ccc3ccccc3c2)c1 [Compound 16, 3-(2-Napthyl)-1-(3-ethoxyphenyl)-2-propen-1-one] | 2.85 µM | 16.2 µM | 1.76 µM |  |  |  |  |  | 97 to 100 °C
CCOc1ccc(C(=O)/C=C/c2ccc3ccccc3c2)cc1 [Compound 17, 3-(2-Napthyl)-1-(4-ethoxyphenyl)-2-propen-1-one] |  |  |  |  |  |  |  |  | 159 to 161 °C
CCOc1cccc(C(=O)/C=C/c2csc3ccccc23)c1 [Compound 18, 3-(1-Benzothien-3-yl)-1-(3-ethoxyphenyl)-2-propen-1-one] | 2.21 µM | 7.59 µM | 1.67 µM |  |  |  |  |  | 103 to 106 °C
CCOc1ccc(C(=O)/C=C/c2csc3ccccc23)cc1 [Compound 19, 3-(1-Benzothien-3-yl)-1-(4-ethoxyphenyl)-2-propen-1-one] | 7.5 µM | 14.6 µM | 4.77 µM |  |  |  |  |  | 129 to 130 °C
CCOc1cccc(C(=O)/C=C/c2cc3ccccc3[nH]2)c1 [Compound 20, 1-(3-Ethoxyphenyl)-3-(1H-indole-2-yl)-2-propen-1-one] | 3.33 µM |  | 4.83 µM |  |  |  |  |  | 156 to 158 °C
CCOc1ccc(C(=O)/C=C/c2cc3ccccc3[nH]2)cc1 [Compound 21, 1-(4-Ethoxyphenyl)-3-(1H-indole-2-yl)-2-propen-1-one] |  |  | 25.3 µM |  |  |  |  |  | 178 to 181 °C
CCOc1ccccc1C(=O)/C=C/c1ccc2[nH]ccc2c1 [Compound 22, (E)-1-(2-Ethoxyphenyl)-3-(1H-indol-5-yl)-2-propen-1-one] | 0.05 µM | 1.71 µM | 0.03 µM |  |  |  |  |  | 151 to 153 °C
CCOc1cccc(C(=O)/C=C/c2ccc3[nH]ccc3c2)c1 [Compound 23, (E)-1-(3-Ethoxyphenyl)-3-(1H-indol-5-yl)-2-propen-1-one] | 2.6 µM | 10 µM | 1.47 µM |  |  |  |  |  | 121 to 123 °C
CCOc1ccc(C(=O)/C=C/c2ccc3[nH]ccc3c2)cc1 [Compound 24, (E)-1-(4-Ethoxyphenyl)-3-(1H-indol-5-yl)-2-propen-1-one] | 26.6 µM | 50 µM | 15.9 µM |  |  |  |  |  | 171 to 173 °C
CCCOc1ccccc1C(=O)/C=C/c1ccc2[nH]ccc2c1 [Compound 25, (E)-3-(1H-indol-5-yl)-1-(2-propoxyphenyl)-2-propen-1-one] | 0.14 µM | 7.1 µM | 0.12 µM |  |  |  |  |  | 114 to 116 °C
CCCOc1ccccc1C(=O)/C=C/c1cc2ccccc2[nH]1 [Compound 26, (E)-3-(1H-indol-2-yl)-1-(2-propoxyphenyl)-2-propen-1-one] | 0.04 µM | 10.1 µM | 0.08 µM |  |  |  |  |  | 112 to 114 °C
CCOc1ccccc1C(=O)/C=C/c1cc2ccccc2s1 [Compound 27, (E)-3-(1-Benzothiophen-2-yl)-1-(2-ethoxyphenyl)-2-propen-1-one] | 0.06 µM | 2.31 µM | 0.07 µM |  |  |  |  |  | 95 to 98 °C
CCOc1cccc(C(=O)/C=C/c2ccc3sccc3c2)c1 [Compound 28] | 5.48 µM | 12.9 µM | 4.78 µM |  |  |  |  |  | 98 to 99 °C
CCOc1ccc(C(=O)/C=C/c2ccc3sccc3c2)cc1 [Compound 29] | 231 µM |  |  |  |  |  |  |  | 149 to 151 °C
CCOc1ccccc1C(=O)/C=C/c1ccc(-c2cccs2)s1 [Compound 30, (E)-3-(2,2′-bithiophen-5-yl)-1-(2-ethoxyphenyl)-2-propen-1-one] | 0.02 µM | 3.13 µM | 0.02 µM |  |  |  |  |  | 
CCOc1ccccc1C(=O)/C=C/c1cc2ccccc2o1 [Compound 31, (E)-3-(1-Benzofuran-2-yl)-1-(2-ethoxyphenyl)-2-propen-1-one] | 0.2 µM | 7.1 µM | 0.05 µM |  |  |  |  |  | 79 to 81 °C
CCOc1cccc(C(=O)/C=C/c2cc3ccccc3o2)c1 [Compound 32, (E)-3-(1-Benzofuran-2-yl)-1-(3-ethoxyphenyl)-2-propen-1-one] | 6.91 µM | 44.3 µM | 16.7 µM |  |  |  |  |  | 127 to 129 °C
CCOc1ccc(C(=O)/C=C/c2cc3ccccc3o2)cc1 [Compound 33, (E)-3-(1-Benzofuran-2-yl)-1-(4-ethoxyphenyl)-2-propen-1-one] | 38.8 µM | 42.2 µM | 19.5 µM |  |  |  |  |  | 100 to 101 °C
CCOc1cccc(C(=O)/C=C/c2ccc3c(c2)OCO3)c1 [Compound 34, (E)-3-(1,3-benzodioxol-5-yl)-1-(3-ethoxyphenyl)prop-2-en-1-one] | 8.73 µM | 18.8 µM | 6.35 µM |  |  |  |  |  | 
